Data on one sequence can be found in patent US20240415920A1, “PEPTIDE HAVING ACTIVITY OF PREVENTING HAIR LOSS OR PROMOTING HAIR GROWTH, AND USE THEREOF” (CAREGEN CO., LTD., priority 2021, published 2024).

Holding throughout (assay type): cell-based, human
In one assay the test system is HHFDPC. Briefly: Proliferation of dermal papilla cells (MTT, absorbance at 540 nm). The note with it: 72 hours, FIG. 1. Here is the method: While culturing human hair follicle dermal dermal papilla cells (HHFDPC), the absorbance was measured after treatment with the peptide of the present invention to confirm whether there was an effect of promoting the proliferation of the HHFDPC dermal papilla cells.
Specifically, HHFDPC (Sciencell, USA) was seeded at 4λ10^3 cells/well in a 96-well culture plate, cultured in MSC complete medium stem (mesenchymal cell complete media, Sciencell, USA) for 24 hours, and then the medium was replaced with serum free MSC complete medium and cultured for another 24 hours. Then, the HHFDPC was treated with the peptide from Preparation Example consisting of amino acid sequence of SEQ ID NO: 1 at concentrations of 10 nM, 100 nM, and 1 μM, respectively, and cultured at 37° C. for 72 hours. As a positive control, minoxidil was treated at a concentration of 1 μM, and as a negative control, HHFDPC without any treatment was used. Then, 10 μl of 5 mg/mL MTT solution was added and cultured in a 37° C. CO2 incubator for 4 hours to stain the cells. After removing the medium, the cells were treated with 100 μl of DMSO and shaken for 10 minutes, and the number of HHFDPC cells was confirmed by measuring absorbance at a wavelength of 540 nm using a spectrophotometer.

In the next assay the test system is p-ERK. The assay can be described thus: Western blotting of phosphorylated ERK in HHFDPC. The following applies: peptide 10 nM, 100 nM, 1 μM, 24 hours, FIG. 2. The text has this:
In the HHFDPC treated with the peptide of the present invention, changes in related factors that affect cell proliferation or differentiation were confirmed to determine whether the peptide of the present invention could promote proliferation and differentiation of HHFDPC by increasing them.
First, phosphorylated forms of AKT and ERK, which act as signaling molecules related to the proliferation of HHFDPC, were confirmed through Western blotting. Specifically, HHFDPC as in [Experiment Example 1-1] above was seeded at 4λ10^5 cells/well in a 6-well culture plate, cultured in MSC complete medium (mesenchymal stem cell complete media) for 24 hours, and then the medium was replaced with serum free MSC complete medium and cultured for another 24 hours. Then, the HHFDPC was treated with the peptide of SEQ ID NO: 1 prepared in the Preparation Example at concentrations of 10 nM, 100 nM, and 1 μM, respectively, and cultured at 37° C. for 24 hours. As a positive control, minoxidil was treated at a concentration of 1 μM, and as a negative control, HHFDPC without any treatment was used. Then, Western blotting was performed to detect phosphorylated AKT and phosphorylated ERK. […] After washing again with 0.1% PBS-T (0.1% Tween-20 in PBS) three times for 15 minutes each, p-AKT and p-ERK were detected by treatment with ECL solution (GE Healthcare, USA).
(A western blot detects proteins with antibodies after separation by electrophoresis.)

A further assay deals with β-catenin. Briefly: Western blotting of β-catenin moved into the nucleus of HHFDPC. The following applies: peptide 10 nM, 100 nM, 1 μM, 24 hours, FIG. 3. The protocol: In addition, in addition to p-AKT and p-ERK, in order to confirm the activation of β-catenin, which is known to affect cell proliferation and differentiation, whether β-catenin moved into the nucleus was confirmed through Western blotting. Specifically, the HHFDPC as in [Experiment Example 1-1] was seeded in a 6-well culture plate at an amount of 4λ10^5 cells/well, cultured in MSC complete medium (mesenchymal stem cell complete media) for 24 hours. Next, the medium was replaced with serum free MSC complete medium and cultured again for 24 hours. Then, the HHFDPC was treated with the peptide of SEQ ID NO: 1 prepared in the Preparation Example at concentrations of 10 nM, 100 nM, and 1 μM, respectively, and cultured at 37° C. for 24 hours. As a positive control, minoxidil was treated at a concentration of 1 μM, and as a negative control, HHFDPC without any treatment was used. After washing with PBS, proteins in the nucleus were isolated using a nuclear protein extraction kit (Thermo scientific, USA). After electrophoresis using a 10% SDS-PAGE gel, it was transferred to a PVDF membrane and blocked using 5% skim milk at room temperature for 30 minutes. […] After washing again with 0.1% PBS-T (0.1% Tween-20 in PBS) three times for 15 minutes each, β-catenin was detected by treatment with ECL solution (GE Healthcare, USA).

In the next assay the test system is Keratin 5. The assay can be described thus: RT-PCR of Keratin 5 expression in HHORSC. The following applies: peptide 10 nM, 100 nM, 1 μM, 72 hours, FIG. 6. The protocol:
Using the peptide of the present invention consisting of the amino acid sequence of SEQ ID NO: 1 prepared according to Preparation Example above, it was confirmed whether it promotes the activity of outer root sheath cells, a type of cell that forms hair follicles.
Specifically, HHORSC (human hair outer root sheath cell, Sciencell, USA) was seeded in a 6-well culture plate at 4×10^5 cells/well and then cultured in MSC complete medium (mesenchymal stem cell complete media) for 24 hours. Next, the medium was replaced with serum free MSC complete medium and cultured again for 24 hours. Then, the HHORSC was treated with the peptide of Preparation Example consisting of amino acid sequence of SEQ ID NO: 1 at concentrations of 10 nM, 100 nM, and 1 μM, respectively, and cultured at 37° C. for 72 hours. […] Then, CDNA was synthesized using a cDNA synthesis kit (enzynomics, Korea) by quantification using nano drop, and PCR was performed using primers for Ha3-II, Keratin 5, Keratin 14, and Keratin 19 (the base sequences of each primer are shown in Table 3 below) and PCR premix (enzynomics, Korea). Electrophoresis was performed on a 1.5% agarose gel, and the mRNAs of Ha3-II, Keratin 5, Keratin 14, and Keratin 19 were detected using a band analysis system (Bio-Rad gel image system).

With “GCGLFVAAC [peptide of the present invention]”, the “absorbance (cell proliferation) compared to the untreated control group” value in the assay with HHFDPC (peptide 10 nM, 100 nM, 1 μM) is “the absorbance was measured to be higher”. The “proliferation promotion effect compared to the positive control group (minoxidil 1 μM)” value in the assay on HHFDPC (peptide 1 μM) is on record as “showed a better proliferation promotion effect than the positive control group”. Also, the “phosphorylation of ERK (p-ERK) compared to the control group not treated with the peptide” value in the assay on p-ERK is “phosphorylation was found to be increased”. In the assay with β-catenin (HHFDPC nuclear protein, Western blotting), the “β-catenin migration to the nucleus compared to the control group not treated with the peptide” value was “migration due to activation of β-catenin increased”. Besides, in the assay with β-catenin (HHFDPC), the “concentration dependence of β-catenin activation” value is on record as “further promoted depending on the concentration”. Besides, the “Keratin 5 mRNA amount compared to the control group without treatment” value in the assay with Keratin 5 is “the amount of mRNA increased further”.
